Data as given in patent US8148541B2, “Rhodanine derivatives, a process for the preparation thereof and pharmaceutical composition containing the same” (Korea Research Institute of Bioscience and Biotechnology, priority 2006, dated 2012).
Where two headings read alike, the source gives them in different places.

What was measured:
Assay in all cases: Protein phosphatase inhibition assay, FDP substrate, FMP fluorescence
Type in all cases: biochemical
PTP1B = molecular target: T1, PTP1B (Homo sapiens, UniProt P18031)
T1 sequence (P18031 1-435): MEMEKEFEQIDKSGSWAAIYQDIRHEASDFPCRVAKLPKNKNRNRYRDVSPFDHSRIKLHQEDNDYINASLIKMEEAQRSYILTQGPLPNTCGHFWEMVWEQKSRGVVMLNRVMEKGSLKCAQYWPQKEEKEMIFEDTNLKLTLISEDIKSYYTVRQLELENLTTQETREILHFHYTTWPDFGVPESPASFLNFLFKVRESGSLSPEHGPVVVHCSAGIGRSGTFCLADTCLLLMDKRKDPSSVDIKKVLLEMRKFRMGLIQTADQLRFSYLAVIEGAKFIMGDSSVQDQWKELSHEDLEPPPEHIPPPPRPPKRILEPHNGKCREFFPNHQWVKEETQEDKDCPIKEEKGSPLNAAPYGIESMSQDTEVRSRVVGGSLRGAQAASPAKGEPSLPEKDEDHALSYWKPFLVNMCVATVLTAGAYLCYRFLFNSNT
Description: (§1) In order to examine the ability of the rhodanine derivatives, that is, Compounds 1˜174, to inhibit protein phosphatases, they were assayed for IC50 values through the following experiments.
(§2) For the experiments, FDP (fluorescein diphosphate) was used as a substrate for genetically recombinant enzymes to measure the fluorescence of FMP (fluorescein monophosphate). […]

VHR = VHR (Homo sapiens, UniProt P51452); conditions: genetically recombinant enzyme, fluorescence of FMP
VHR, sequence (P51452 whole entry): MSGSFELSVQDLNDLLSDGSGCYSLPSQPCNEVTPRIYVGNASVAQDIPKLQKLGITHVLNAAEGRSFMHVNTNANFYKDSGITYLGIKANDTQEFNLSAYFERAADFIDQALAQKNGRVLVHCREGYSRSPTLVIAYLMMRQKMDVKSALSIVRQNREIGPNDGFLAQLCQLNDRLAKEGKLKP
Description: as §1, §2

CD45 = molecular target: T2, CD45 (Homo sapiens, UniProt P08575); conditions: genetically recombinant enzyme, fluorescence of FMP
T2 sequence (P08575 26-1306): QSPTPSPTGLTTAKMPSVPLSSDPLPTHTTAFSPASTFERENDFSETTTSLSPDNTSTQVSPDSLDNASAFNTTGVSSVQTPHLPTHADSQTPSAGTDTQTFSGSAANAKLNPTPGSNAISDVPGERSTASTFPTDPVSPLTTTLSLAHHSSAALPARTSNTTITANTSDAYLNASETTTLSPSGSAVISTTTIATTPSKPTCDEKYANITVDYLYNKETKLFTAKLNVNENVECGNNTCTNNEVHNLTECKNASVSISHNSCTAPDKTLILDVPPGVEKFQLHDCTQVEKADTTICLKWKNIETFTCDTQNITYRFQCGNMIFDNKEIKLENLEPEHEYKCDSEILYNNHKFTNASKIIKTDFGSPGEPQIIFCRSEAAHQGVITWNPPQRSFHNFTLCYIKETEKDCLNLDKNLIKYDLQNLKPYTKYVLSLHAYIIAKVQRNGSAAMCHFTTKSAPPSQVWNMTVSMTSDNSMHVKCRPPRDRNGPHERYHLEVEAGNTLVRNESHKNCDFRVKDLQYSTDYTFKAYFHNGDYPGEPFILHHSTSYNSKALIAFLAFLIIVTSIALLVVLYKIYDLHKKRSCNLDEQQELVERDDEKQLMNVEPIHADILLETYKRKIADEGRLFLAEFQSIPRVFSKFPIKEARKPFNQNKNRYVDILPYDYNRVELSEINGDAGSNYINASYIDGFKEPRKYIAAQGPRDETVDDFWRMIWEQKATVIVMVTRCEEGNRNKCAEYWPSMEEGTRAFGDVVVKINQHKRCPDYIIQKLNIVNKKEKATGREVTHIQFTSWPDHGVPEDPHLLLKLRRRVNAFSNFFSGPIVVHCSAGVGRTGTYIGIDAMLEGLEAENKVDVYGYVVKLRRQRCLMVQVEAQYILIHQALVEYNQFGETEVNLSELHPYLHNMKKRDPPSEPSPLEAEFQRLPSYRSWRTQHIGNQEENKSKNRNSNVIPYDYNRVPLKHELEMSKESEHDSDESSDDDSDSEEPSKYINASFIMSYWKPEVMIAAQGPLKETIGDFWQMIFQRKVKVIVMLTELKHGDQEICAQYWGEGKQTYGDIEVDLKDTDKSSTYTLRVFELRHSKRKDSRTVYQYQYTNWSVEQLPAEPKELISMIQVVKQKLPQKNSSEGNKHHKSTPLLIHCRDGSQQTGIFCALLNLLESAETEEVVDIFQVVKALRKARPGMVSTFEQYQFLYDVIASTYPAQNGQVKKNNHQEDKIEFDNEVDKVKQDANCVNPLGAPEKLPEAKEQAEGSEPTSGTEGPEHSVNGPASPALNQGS
Description: as §1, §2

Cdc25C = molecular target: T3, Cdc25C (Homo sapiens, UniProt P30307); conditions: genetically recombinant enzyme, fluorescence of FMP
T3 sequence (P30307 1-473): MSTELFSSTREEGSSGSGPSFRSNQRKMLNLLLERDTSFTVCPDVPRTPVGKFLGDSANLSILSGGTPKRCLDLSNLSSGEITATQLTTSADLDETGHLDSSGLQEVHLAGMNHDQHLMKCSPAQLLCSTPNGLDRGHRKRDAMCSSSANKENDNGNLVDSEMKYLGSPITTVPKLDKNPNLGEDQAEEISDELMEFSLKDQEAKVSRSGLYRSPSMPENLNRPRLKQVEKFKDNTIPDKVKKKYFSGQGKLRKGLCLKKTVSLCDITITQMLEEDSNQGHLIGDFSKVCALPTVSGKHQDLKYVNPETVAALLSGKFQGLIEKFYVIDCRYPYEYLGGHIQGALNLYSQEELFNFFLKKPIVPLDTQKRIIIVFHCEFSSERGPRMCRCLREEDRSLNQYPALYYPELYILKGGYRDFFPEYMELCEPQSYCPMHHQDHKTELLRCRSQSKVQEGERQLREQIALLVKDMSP
Description: as §1, §2

Prl-3 = Prl-3 (Homo sapiens, UniProt O75365); conditions: genetically recombinant enzyme, fluorescence of FMP
Prl-3, sequence (O75365 whole entry): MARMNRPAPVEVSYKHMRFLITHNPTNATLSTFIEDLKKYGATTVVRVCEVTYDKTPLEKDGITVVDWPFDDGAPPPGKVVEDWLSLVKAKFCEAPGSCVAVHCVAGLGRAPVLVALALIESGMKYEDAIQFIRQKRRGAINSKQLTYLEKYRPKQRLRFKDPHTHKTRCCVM
Source text: For the experiments, FDP (fluorescein diphosphate) was used as a substrate for genetically recombinant enzymes to measure the fluorescence of FMP (fluorescein monophosphate).

LAR = LAR (Homo sapiens, UniProt P10586); conditions: genetically recombinant enzyme, fluorescence of FMP
LAR, sequence (P10586 30-1907): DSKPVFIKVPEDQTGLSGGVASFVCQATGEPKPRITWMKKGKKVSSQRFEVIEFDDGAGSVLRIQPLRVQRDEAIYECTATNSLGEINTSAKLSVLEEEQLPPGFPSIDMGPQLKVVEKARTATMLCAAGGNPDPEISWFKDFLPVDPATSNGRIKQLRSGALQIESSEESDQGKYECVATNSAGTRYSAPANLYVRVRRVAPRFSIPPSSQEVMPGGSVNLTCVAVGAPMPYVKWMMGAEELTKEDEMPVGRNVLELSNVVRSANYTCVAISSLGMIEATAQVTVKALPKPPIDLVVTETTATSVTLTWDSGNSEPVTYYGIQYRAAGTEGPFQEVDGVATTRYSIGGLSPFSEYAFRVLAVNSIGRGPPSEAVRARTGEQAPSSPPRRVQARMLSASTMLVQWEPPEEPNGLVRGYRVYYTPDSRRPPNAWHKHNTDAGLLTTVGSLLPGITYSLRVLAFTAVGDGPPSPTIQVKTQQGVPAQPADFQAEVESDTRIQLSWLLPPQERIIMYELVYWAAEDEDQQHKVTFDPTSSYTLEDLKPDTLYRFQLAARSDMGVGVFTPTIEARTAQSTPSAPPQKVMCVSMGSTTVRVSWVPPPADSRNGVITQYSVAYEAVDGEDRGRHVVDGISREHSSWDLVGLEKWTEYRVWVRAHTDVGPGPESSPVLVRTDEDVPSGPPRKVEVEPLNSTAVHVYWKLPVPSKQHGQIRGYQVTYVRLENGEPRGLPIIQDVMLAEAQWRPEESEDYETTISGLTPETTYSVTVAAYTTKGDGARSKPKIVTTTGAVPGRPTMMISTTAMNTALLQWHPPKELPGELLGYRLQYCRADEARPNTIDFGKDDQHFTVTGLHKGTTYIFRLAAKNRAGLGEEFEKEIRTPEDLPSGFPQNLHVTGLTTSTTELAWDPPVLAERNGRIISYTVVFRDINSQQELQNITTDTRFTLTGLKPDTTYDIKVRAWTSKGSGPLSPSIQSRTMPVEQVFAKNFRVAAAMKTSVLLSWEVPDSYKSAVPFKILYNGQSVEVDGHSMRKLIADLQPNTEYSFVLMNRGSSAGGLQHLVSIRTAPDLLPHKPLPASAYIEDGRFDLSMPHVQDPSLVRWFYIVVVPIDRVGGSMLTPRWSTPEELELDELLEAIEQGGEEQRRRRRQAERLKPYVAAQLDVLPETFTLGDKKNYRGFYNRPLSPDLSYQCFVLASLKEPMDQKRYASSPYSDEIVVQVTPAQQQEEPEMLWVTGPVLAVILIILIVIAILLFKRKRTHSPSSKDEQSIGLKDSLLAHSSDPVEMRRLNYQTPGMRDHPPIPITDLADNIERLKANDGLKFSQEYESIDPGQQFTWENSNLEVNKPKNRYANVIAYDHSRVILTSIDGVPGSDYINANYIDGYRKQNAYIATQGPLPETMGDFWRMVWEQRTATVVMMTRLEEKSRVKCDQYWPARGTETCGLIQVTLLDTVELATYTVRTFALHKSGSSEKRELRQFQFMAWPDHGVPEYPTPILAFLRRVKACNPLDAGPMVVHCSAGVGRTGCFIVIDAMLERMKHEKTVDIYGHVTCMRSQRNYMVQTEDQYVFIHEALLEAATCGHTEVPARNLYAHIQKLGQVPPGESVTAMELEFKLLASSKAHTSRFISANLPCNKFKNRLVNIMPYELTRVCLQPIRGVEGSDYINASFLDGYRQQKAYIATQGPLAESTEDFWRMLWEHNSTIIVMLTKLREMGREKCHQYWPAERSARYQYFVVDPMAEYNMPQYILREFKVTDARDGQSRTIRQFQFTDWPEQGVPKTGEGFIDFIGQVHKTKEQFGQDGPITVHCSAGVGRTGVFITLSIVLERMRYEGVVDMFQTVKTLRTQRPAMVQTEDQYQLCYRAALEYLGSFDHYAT
Description: as §1, §2

PP1 = conditions: genetically recombinant enzyme, fluorescence of FMP
Description: as §1, §2

Cdc25B = molecular target: T4, Cdc25B (Homo sapiens, UniProt P30305); conditions: genetically recombinant enzyme, fluorescence of FMP
T4 sequence (P30305 1-580): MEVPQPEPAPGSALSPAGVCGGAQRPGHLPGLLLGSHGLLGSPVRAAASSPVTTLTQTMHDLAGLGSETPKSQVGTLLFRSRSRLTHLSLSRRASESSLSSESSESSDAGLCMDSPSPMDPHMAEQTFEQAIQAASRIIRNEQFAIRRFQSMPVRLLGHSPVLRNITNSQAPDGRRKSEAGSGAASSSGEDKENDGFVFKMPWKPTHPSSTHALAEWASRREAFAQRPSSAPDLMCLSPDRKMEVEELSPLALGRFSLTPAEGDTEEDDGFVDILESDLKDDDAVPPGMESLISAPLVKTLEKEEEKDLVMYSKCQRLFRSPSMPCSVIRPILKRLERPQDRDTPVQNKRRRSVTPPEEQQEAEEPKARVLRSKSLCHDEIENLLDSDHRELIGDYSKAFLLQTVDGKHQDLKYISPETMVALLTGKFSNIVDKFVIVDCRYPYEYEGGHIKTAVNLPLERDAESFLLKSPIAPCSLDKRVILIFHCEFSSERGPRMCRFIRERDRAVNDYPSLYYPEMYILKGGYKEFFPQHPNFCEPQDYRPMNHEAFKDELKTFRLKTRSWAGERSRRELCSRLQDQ
Description: as §1, §2

Cdc25A = molecular target: T5, Cdc25A (Homo sapiens, UniProt P30304); conditions: genetically recombinant enzyme, fluorescence of FMP
T5 sequence (P30304 1-524): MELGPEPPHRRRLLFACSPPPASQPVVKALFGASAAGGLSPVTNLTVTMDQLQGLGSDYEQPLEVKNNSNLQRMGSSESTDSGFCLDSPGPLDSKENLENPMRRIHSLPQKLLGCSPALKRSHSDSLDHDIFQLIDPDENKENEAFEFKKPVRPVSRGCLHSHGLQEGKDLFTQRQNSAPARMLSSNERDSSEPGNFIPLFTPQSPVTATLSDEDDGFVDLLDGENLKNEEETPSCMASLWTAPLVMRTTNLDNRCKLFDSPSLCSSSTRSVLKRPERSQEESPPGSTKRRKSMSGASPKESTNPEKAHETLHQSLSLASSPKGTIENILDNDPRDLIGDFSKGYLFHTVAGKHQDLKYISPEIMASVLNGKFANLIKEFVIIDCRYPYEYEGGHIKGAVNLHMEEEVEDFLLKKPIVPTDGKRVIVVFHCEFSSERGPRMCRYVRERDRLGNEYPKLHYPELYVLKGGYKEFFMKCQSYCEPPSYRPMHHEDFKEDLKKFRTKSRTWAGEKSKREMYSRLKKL
Description: as §1, §2

pp2A = conditions: genetically recombinant enzyme, fluorescence of FMP
Description: as §1, §2

Yop = Yop (Yersinia enterocolitica, UniProt P15273); conditions: genetically recombinant enzyme, fluorescence of FMP
Yop, sequence (P15273 whole entry): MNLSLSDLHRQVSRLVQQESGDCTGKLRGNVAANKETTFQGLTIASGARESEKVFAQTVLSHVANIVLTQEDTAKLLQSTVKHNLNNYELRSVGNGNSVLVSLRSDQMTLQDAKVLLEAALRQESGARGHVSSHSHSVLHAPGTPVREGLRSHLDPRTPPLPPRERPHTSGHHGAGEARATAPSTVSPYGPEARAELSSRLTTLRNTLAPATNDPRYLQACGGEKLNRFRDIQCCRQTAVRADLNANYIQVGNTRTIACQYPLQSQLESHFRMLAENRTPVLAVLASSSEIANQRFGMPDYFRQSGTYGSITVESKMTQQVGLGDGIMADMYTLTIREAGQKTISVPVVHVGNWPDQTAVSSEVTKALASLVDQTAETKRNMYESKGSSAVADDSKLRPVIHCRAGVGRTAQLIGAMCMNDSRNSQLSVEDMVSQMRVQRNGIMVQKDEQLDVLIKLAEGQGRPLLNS
Description: as §1, §2

[1] = genetically recombinant enzyme, FDP substrate, fluorescence of FMP, read-out: IC50 PTP1B

Row | Compound | IC50 (PTP1B; [1]) [µM] | IC50 (Cdc25C) [µM] | IC50 (Prl-3) [µM] | also measured
1 | O=C1NC(=S)S/C1=C\c1cc(Br)ccc1OCc1cccc(C(F)(F)F)c1 [Compound 19, 5-[5-bromo-2-(3-trifluoromethyl-benzyloxy)-benzylidene]-2-thioxo-thiazolidin-4-one] | 5 | > 20 |  | IC50 (VHR): > 20 µM; IC50 (CD45): > 20 µM
2 | O=C1NC(=S)S/C1=C\c1cc(Br)ccc1OCc1ccccc1 [Compound 1, 5-(2-benzyloxy-5-bromobenzylidene)-2-thioxo-thiazolidin-4-one] |  |  |  | IC50 (PTP1B): > 20 µM
3 | CCN(CC)c1ccc(/C=C2\SC(=S)NC2=O)c(OCc2ccccc2)c1 [Compound 32, 5-(2-benzyloxy-4-diethylamino-benzylidene)-2-thioxo-thiazolidin-4-one] | > 20 | > 20 | 1.34 | IC50 (VHR): > 20 µM; IC50 (LAR): > 20 µM
4 | O=C1NC(=S)S/C1=C\c1cc2ccccc2cc1OCc1ccccc1 [Compound 2, 5-(3-benzyloxy-naphthalen-2-ylmethylene)-2-thioxo-thiazolidin-4-one] | > 20 | > 20 |  | IC50 (PP1): > 20 µM
5 | O=C1NC(=S)S/C1=C\c1cc(Br)ccc1OCCn1c2ccccc2c2ccccc21 [Compound 141, 5-[5-bromo-2-(2-carbazol-9-yl-ethoxy)-benzylidene]-2-thioxo-thiazolidin-4-one] | 47 |  | 1.6 | IC50 (Cdc25B): 2.7 µM; IC50 (Cdc25A): > 20 µM
6 | O=C1NC(=S)S/C1=C\c1cc(Br)ccc1OCc1ccc(-c2ccccc2)cc1 [Compound 18, 5-[2-(biphenyl-ylmethoxy)-5-bromo-benzylidene]-2-thioxo-thiazolidin-4-one] | 2.1 |  |  | IC50 (CD45): > 20 µM
7 | O=C1NC(=S)S/C1=C\c1cc(Br)ccc1OCCN1c2ccccc2Cc2ccccc21 [Compound 142, 5-2-[2-(9H-acridin-10-yl)-ethoxy]-5-bromo-benzylidene-2-thioxo-thiazolidin-4-one] | 13 | > 20 | 3.6 | IC50 (Cdc25B): 4.4 µM
8 | O=C1NC(=S)S/C1=C\c1cc(Br)ccc1OCCc1ccccc1 [Compound 4, 5-(5-bromo-2-phenethyloxy-benzylidene)-2-thioxo-thiazolidin-4-one] | 10 |  |  | IC50 (PP1): > 20 µM; IC50 (pp2A): > 20 µM
9 | CN(CCOc1ccc(Br)cc1/C=C1\SC(=S)NC1=O)C(=O)OC(C)(C)C [Compound 157, 2-[4-bromo-2-(4-oxo-2-thioxo-thiazolidin-5-ylidenemethyl)-phenoxy]-ethyl-methyl-carbamic acid t-butyl ester] | > 20 |  | 6.2 | IC50 (Yop): > 20 µM; IC50 (LAR): > 20 µM
